ChEMBL document CHEMBL6120988, “Mitochondria-targeting artesunate-rhein conjugates: Linker-modulated cell-permeability, heme-affinity and anticancer activity” (Eur J Med Chem, 2025)
The source made the active and inactive calls. The rule behind the calls is not given here.

How the values were obtained:
[1] = test system: 4T1; assay: Cytotoxicty against mouse 4T1 cells assessed as cell death by measuring red staining by calcein/PI staining based live/dead staining analysis; assay type: functional
[2] = test system: A549; assay: Cytotoxicity against human A549 cells assessed as cell viability by MTT assay; assay type: functional, cell-based
[3] = test system: 4T1; assay: Induction of ROS production in mouse 4T1 cells assessed as increase in intracellular ROS level by […] staining based flow cytometry (reference value: 7.8%); assay type: functional
[4] = test system: MCF7; assay: Cytotoxicity against human MCF7 cells assessed as cell viability by MTT assay; assay type: functional, cell-based
[5] = test system: 4T1; assay: Cytotoxicty against mouse 4T1 cells assessed as cell viability by MTT assay; assay type: functional, cell-based
[6] = test system: U-87 MG; assay: Cytotoxicity against human U87 cells assessed as cell viability by MTT assay; assay type: functional, cell-based, U-87MG ATCC
[7] = test system: Mitochondrial membrane; assay: Induction of mitochondrial membrane potential loss in mouse 4T1 cells assessed as increase in green fluorescence by JC-1 staining based flow cytometric analysis (reference value: 7.4 %); assay type: cell membranes
[8] = test system: 4T1; assay: Induction of apoptosis in mouse 4T1 cells assessed as viable cells by Annexin V-FITC and PI staining based flow cytometry analysis (reference value: 96.2 %); assay type: functional
[9] = test system: 4T1; assay: Induction of apoptosis in mouse 4T1 cells assessed as late apoptotic cells by Annexin V-FITC and PI staining based flow cytometry analysis (reference value: 0.13 %); assay type: functional
[10] = test system: HeLa; assay: Cytotoxicity against human Hela cells assessed as cell viability by MTT assay; assay type: functional, cell-based
[11] = Drug localization in mitochondria of mouse 4T1 cells assessed as fluorescence intensity measured using pearson co-efficient incubated for 10 hrs by mito-tracker red fluorescent dye based confocal laser scanning microscopic analysis; assay type: ADME; conditions: 4t1, 10 h
[12] = test system: 4T1; assay: Induction of apoptosis in mouse 4T1 cells assessed as early apoptotic cells by Annexin V-FITC and PI staining based flow cytometry analysis(reference value: 3.60 %); assay type: functional
[13] = test system: 4T1; assay: Induction of apoptosis in mouse 4T1 cells assessed as necrotic cells by Annexin V-FITC and PI staining based flow cytometry analysis (reference value: 0.085 %); assay type: functional
[14] = test system: 4T1; assay: Induction of immunogenic cell death in mouse 4T1 cells assessed as increase in CRT expression by flow cytometry analysis (reference value: 2.55%); assay type: functional
[15] = test system: 4T1; assay: Induction of immunogenic cell death in mouse 4T1 cells assessed as increase in CRT exposure on cell surface by measuring increase in red fluorescence by CLSM analysis (reference value: 2.55%); assay type: functional

Compound | Activity [1] | IC50 [2] [µM] | Activity [3] [%] | IC50 [4] [µM] | IC50 [5] [µM] | IC50 [6] [µM] | Activity [7] [%] | Activity [8] [%] | Activity [9] [%] | IC50 [10] [µM] | Flu intensity [11] | Activity [12] [%] | Activity [13] [%] | Activity [14] [%] | Activity [15] [%]
C[C@H]1[C@H](OC(=O)CCC(=O)OCCCCCOC(=O)c2cc(O)c3c(c2)C(=O)c2cccc(O)c2C3=O)O[C@@H]2O[C@@]3(C)CC[C@H]4[C@H](C)CC[C@@H]1[C@@]24OO3 | Active | 3.19 | 30 | 2.27 | 1.68 | 2.91 | 36.5 | 69.5 | 15.2 | 2.88 | 0.94 | 13 | 2.34 |  | 
O=C(O)c1cc(O)c2c(c1)C(=O)c1cccc(O)c1C2=O [RHEIN] |  | 53.4 | 11.8 | 56.5 | 51.5 | 47.8 | 11.4 | 94 | 0.86 | 50.8 | 0.93 | 4.28 | 0.83 | 3.82 | 3.82
C[C@H]1[C@H](OC(=O)CCC(=O)OCCCOC(=O)c2cc(O)c3c(c2)C(=O)c2cccc(O)c2C3=O)O[C@@H]2O[C@@]3(C)CC[C@H]4[C@H](C)CC[C@@H]1[C@@]24OO3 | Active | 2.93 | 31 | 2.43 | 1.41 | 2.56 | 37.3 | 60.1 | 21.6 | 2.9 | 0.96 | 14.9 | 3.35 |  | 
C[C@H]1[C@H](OC(=O)CCC(=O)O)O[C@@H]2O[C@@]3(C)CC[C@H]4[C@H](C)CC[C@@H]1[C@@]24OO3 [ARTESUNATE] |  | 14.7 | 14.3 | 12.7 | 12 | 13.5 | 14.8 | 90.6 | 2.24 | 15.4 |  | 6.46 | 0.71 | 9.59 | 9.59
C[C@H]1[C@H](OC(=O)CCC(=O)OCCCCCCOC(=O)c2cc(O)c3c(c2)C(=O)c2cccc(O)c2C3=O)O[C@@H]2O[C@@]3(C)CC[C@H]4[C@H](C)CC[C@@H]1[C@@]24OO3 | Active | 3.29 | 32.7 | 2.19 | 1.8 | 2.69 | 38.1 | 65.8 | 17.7 | 3.11 | 0.95 | 14.2 | 2.37 |  | 
C[C@H]1[C@H](OC(=O)CCC(=O)OCCOC(=O)c2cc(O)c3c(c2)C(=O)c2cccc(O)c2C3=O)O[C@@H]2O[C@@]3(C)CC[C@H]4[C@H](C)CC[C@@H]1[C@@]24OO3 | Active | 3.01 | 39.6 | 2.23 | 1.4 | 2.44 | 39.2 | 52.6 | 26.7 | 2.77 | 0.91 | 13.9 | 6.81 |  | 
CC(=O)O[C@H]1C(=O)[C@@]2(C)[C@H]([C@H](OC(=O)c3ccccc3)[C@]3(O)C[C@H](OC(=O)[C@H](O)[C@@H](NC(=O)c4ccccc4)c4ccccc4)C(C)=C1C3(C)C)[C@]1(OC(C)=O)CO[C@@H]1C[C@@H]2O [PACLITAXEL] |  |  |  |  | 3.15 |  |  |  |  |  |  |  |  |  | 
